11 compounds from ChEMBL document CHEMBL3751674, “Synthesis, antimicrobial activity of Schiff base compounds of cinnamaldehyde and amino acids” (2016) can be followed below.

Holding throughout (assay type): functional
Common to all, as to settings: read-out: DIZ

For assay [1], the system named is Penicillium citrinum. Nature of the assay: Antifungal activity against Penicillium citrinum at 0.25 mol/L after 2 to 4 days by paper disc method.
Assay [2] has as its system Staphylococcus aureus. Put plainly: Antibacterial activity against Staphylococcus aureus at 0.25 mol/L after 12 to 24 hrs by paper disc method.
Assay [3] deals with Escherichia coli. Put plainly: Antibacterial activity against Escherichia coli at 0.13 mol/L after 12 to 24 hrs by paper disc method.
The test system of assay [4] is Escherichia coli. Nature of the assay: Antibacterial activity against Escherichia coli at 0.03 mol/L after 12 to 24 hrs by paper disc method.
Assay [5] has as its system Aspergillus niger. Nature of the assay: Antifungal activity against Aspergillus niger at 0.06 mol/L after 2 to 4 days by paper disc method.
Assay [6] concerns Aspergillus niger. Nature of the assay: Antifungal activity against Aspergillus niger at 0.13 mol/L after 2 to 4 days by paper disc method.
Assay [7] relates to Penicillium citrinum. Put plainly: Antifungal activity against Penicillium citrinum at 0.06 mol/L after 2 to 4 days by paper disc method.
Assay [8] relates to Escherichia coli. Put plainly: Antibacterial activity against Escherichia coli at 0.06 mol/L after 12 to 24 hrs by paper disc method.
Assay [9] deals with Penicillium citrinum. Nature of the assay: Antifungal activity against Penicillium citrinum at 0.03 mol/L after 2 to 4 days by paper disc method.
Assay [10] has as its system Escherichia coli. Put plainly: Antibacterial activity against Escherichia coli at 0.25 mol/L after 12 to 24 hrs by paper disc method.
Assay [11] relates to Staphylococcus aureus. Put plainly: Antibacterial activity against Staphylococcus aureus at 0.06 mol/L after 12 to 24 hrs by paper disc method.
Assay [12] relates to Penicillium citrinum. Nature of the assay: Antifungal activity against Penicillium citrinum at 0.13 mol/L after 2 to 4 days by paper disc method.
Assay [13] deals with Aspergillus niger. Put plainly: Antifungal activity against Aspergillus niger at 0.25 mol/L after 2 to 4 days by paper disc method.
Assay [14] concerns Staphylococcus aureus. Nature of the assay: Antibacterial activity against Staphylococcus aureus at 0.13 mol/L after 12 to 24 hrs by paper disc method.
In assay [15] the test system is Staphylococcus aureus. Put plainly: Antibacterial activity against Staphylococcus aureus at 0.03 mol/L after 12 to 24 hrs by paper disc method.
For assay [16], the system named is Aspergillus niger. Nature of the assay: Antifungal activity against Aspergillus niger at 0.03 mol/L after 2 to 4 days by paper disc method.

Regarding `CC(C)[C@H](/N=C/C=C/c1ccccc1)C(=O)O`, the zone of inhibition at 250000 µM in [1] is 12.5 mm; in assay [2] it was 8 mm; in assay [10] it was 9 mm; in assay [13], 12.7 mm. For the same compound, the zone of inhibition at 130000 µM in assay [3] was found to be 8 mm; in [6], 12.3 mm; in [12], 9.7 mm; in assay [14], 8 mm. Moreover, the zone of inhibition at 30000 µM in [4] was found to be 8 mm; in assay [9] it was 9 mm; in assay [15], 8 mm; in [16] it was 8 mm. Further, the zone of inhibition at 60000 µM in [5] is 13 mm; in [7], 8 mm; in assay [8], 11 mm; in assay [11], 8 mm.
Turning to `O=C(O)[C@H](Cc1ccc(O)cc1)/N=C/C=C/c1ccccc1`, the zone of inhibition at 250000 µM in assay [1] amounted to 12 mm; in assay [2], 14.2 mm; in assay [10], 31.3 mm; in assay [13], 12 mm. Also, the zone of inhibition at 130000 µM in assay [3] stood at 19.5 mm; in assay [6] it was 18.7 mm; in [12] it was 11.5 mm; in assay [14], 11.5 mm. For the same compound, the zone of inhibition at 30000 µM in assay [4] was 12 mm; in assay [9], 12.3 mm; in [15] it was 8 mm; in assay [16] it was 8 mm. The zone of inhibition at 60000 µM turned out to be 12.3 mm in assay [5], 11 mm in [7], 8 mm in assay [8] and 8 mm in assay [11].
With `CC(C)C[C@H](/N=C/C=C/c1ccc(Cl)cc1)C(=O)O`, the zone of inhibition at 250000 µM stood at 28.3 mm in [1], 28.3 mm in assay [2], 17 mm in assay [10] and 29.3 mm in assay [13]. The zone of inhibition at 130000 µM in [3] amounted to 17.8 mm; in assay [6] it was 20.7 mm; in assay [12] it was 25.7 mm; in assay [14], 11 mm. Also, the zone of inhibition at 30000 µM in assay [4] worked out at 9.3 mm; in [9], 16.5 mm; in [15], 8.7 mm; in [16], 18.3 mm. Further, the zone of inhibition at 60000 µM was found to be 18.7 mm in assay [5], 19.7 mm in assay [7], 10 mm in assay [8] and 16.8 mm in assay [11].
Regarding `O=C(O)[C@H](Cc1ccc(O)cc1)/N=C/C=C/c1ccc(Cl)cc1`, the zone of inhibition at 250000 µM in assay [1] came to 25 mm; in assay [2], 19.3 mm; in assay [10] it was 17.8 mm; in assay [13], 29.7 mm. Besides, the zone of inhibition at 130000 µM in assay [3] worked out at 12 mm; in assay [6], 15.7 mm; in [12], 23.5 mm; in [14], 12.7 mm. Besides, the zone of inhibition at 30000 µM in assay [4] came to 13.7 mm; in assay [9], 11.5 mm; in [15] it was 9.7 mm; in assay [16], 12.3 mm. Further, the zone of inhibition at 60000 µM in assay [5] is 15.5 mm; in [7], 15.7 mm; in [8], 15.7 mm; in [11], 11.7 mm.
In the case of `COc1ccc(/C=C/C=N/C(C)C(=O)O)cc1` (stereo unspecified), the zone of inhibition at 250000 µM in [1] is 17.7 mm; in [2] it was 12.7 mm; in [10], 16.3 mm; in assay [13], 15.8 mm. The zone of inhibition at 130000 µM came out at 8 mm in [3], 10.5 mm in assay [6], 9.8 mm in assay [12] and 8.7 mm in assay [14]. Moreover, the zone of inhibition at 30000 µM in assay [4] amounted to 8 mm; in assay [9], 9 mm; in assay [15] it was 8 mm; in assay [16] it was 8 mm. The zone of inhibition at 60000 µM in [5] was 12.7 mm; in assay [7] it was 13.3 mm; in assay [8], 10 mm; in [11] it was 8 mm.
In the case of `COc1ccc(/C=C/C=N/[C@H](C(=O)O)C(C)C)cc1`, the zone of inhibition at 250000 µM turned out to be 14.3 mm in assay [1], 9 mm in assay [2], 9 mm in assay [10] and 16.7 mm in assay [13]. Moreover, the zone of inhibition at 130000 µM in assay [3] was determined as 8 mm; in assay [6] it was 13.3 mm; in assay [12], 11.7 mm; in assay [14], 8 mm. The zone of inhibition at 30000 µM was determined as 8 mm in assay [4], 8 mm in [9], 8 mm in [15] and 9 mm in assay [16]. The zone of inhibition at 60000 µM in assay [5] was 10.3 mm; in [7], 12.7 mm; in assay [8], 12 mm; in assay [11], 8 mm.
For the compound `COc1ccc(/C=C/C=N/[C@@H](CC(C)C)C(=O)O)cc1`, the zone of inhibition at 250000 µM in [1] is 17.7 mm; in [2], 10.8 mm; in assay [10], 13 mm; in assay [13], 19 mm. The zone of inhibition at 130000 µM was determined as 14 mm in assay [3], 16 mm in assay [6], 12 mm in [12] and 8 mm in assay [14]. In addition, the zone of inhibition at 30000 µM came out at 8 mm in [4], 12 mm in assay [9], 9.7 mm in assay [15] and 9.7 mm in assay [16]. Also, the zone of inhibition at 60000 µM in assay [5] came out at 10.5 mm; in assay [7], 10 mm; in assay [8] it was 9.3 mm; in assay [11], 8 mm.
As for `COc1ccc(/C=C/C=N/[C@@H](Cc2ccc(O)cc2)C(=O)O)cc1`, the zone of inhibition at 250000 µM in assay [1] was determined as 24 mm; in assay [2], 8.5 mm; in assay [10], 18 mm; in assay [13], 19.5 mm. For the same compound, the zone of inhibition at 130000 µM amounted to 12.3 mm in assay [3], 14.7 mm in [6], 16.5 mm in [12] and 8.7 mm in assay [14]. The zone of inhibition at 30000 µM in [4] came to 12 mm; in [9] it was 10.8 mm; in assay [15], 8 mm; in assay [16], 10.3 mm. In addition, the zone of inhibition at 60000 µM is 13.8 mm in assay [5], 19 mm in assay [7], 8.3 mm in [8] and 8 mm in assay [11].
For `CC(C)C[C@H](/N=C/C=C/c1ccccc1)C(=O)O`, the zone of inhibition at 250000 µM in assay [1] came to 10.5 mm; in assay [2], 8 mm; in assay [10], 10 mm; in assay [13], 16.3 mm. In addition, the zone of inhibition at 130000 µM in assay [3] was found to be 8.3 mm; in assay [6] it was 9.8 mm; in [12], 9 mm; in [14] it was 8 mm. Also, the zone of inhibition at 30000 µM in [4] stood at 8 mm; in [9], 8.5 mm; in assay [15] it was 8 mm; in assay [16] it was 8 mm. Also, the zone of inhibition at 60000 µM in assay [5] was determined as 8 mm; in [7], 9.3 mm; in assay [8] it was 8 mm; in assay [11], 8.2 mm.
As for `CC(/N=C/C=C/c1ccc(Cl)cc1)C(=O)O` (stereo unspecified), the zone of inhibition at 250000 µM in assay [1] is 30.3 mm; in [2], 33.7 mm; in assay [10], 12.2 mm; in [13] it was 26.7 mm. The zone of inhibition at 130000 µM turned out to be 12.5 mm in assay [3], 24.7 mm in assay [6], 26.3 mm in assay [12] and 33.5 mm in assay [14]. Moreover, the zone of inhibition at 30000 µM came to 12 mm in [4], 17.3 mm in assay [9], 8.7 mm in assay [15] and 13.8 mm in assay [16]. For the same compound, the zone of inhibition at 60000 µM came out at 19.3 mm in assay [5], 24.7 mm in [7], 11.5 mm in [8] and 10.5 mm in [11].
Turning to `CC(C)[C@H](/N=C/C=C/c1ccc(Cl)cc1)C(=O)O`, the zone of inhibition at 250000 µM in [1] stood at 33.5 mm; in assay [2], 33 mm; in assay [10], 20.5 mm; in [13], 27.3 mm. Moreover, the zone of inhibition at 130000 µM in assay [3] was 15.3 mm; in assay [6], 24 mm; in assay [12], 31 mm; in [14] it was 15.3 mm. The zone of inhibition at 30000 µM in assay [4] worked out at 12 mm; in assay [9], 20.7 mm; in assay [15] it was 11 mm; in assay [16], 15.7 mm. Besides, the zone of inhibition at 60000 µM in assay [5] came out at 19 mm; in [7], 19.5 mm; in assay [8], 11 mm; in [11], 13.5 mm.
